In the supplement of paper PMC10307832:

Key:
Assay in all cases: relative viability (nuclei count vs DMSO), 5 days (fraction); higher = more cells survive
Zebularine + Bortezomib = compound: O=c1ncccn1[C@@H]1O[C@H](CO)[C@@H](O)[C@H]1O [Zebularine] + CC(C)C[C@H](NC(=O)[C@H](Cc1ccccc1)NC(=O)c1cnccn1)B(O)O [Bortezomib] (partner 0.002 µM)
Procedure, shortened: (§1)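 Relative viability was taken as the ratio of nuclei in treated wells to nuclei in vehicle wells. Lung cancer cell lines in 1536-well plates received compounds by pin tool one day after seeding, either one drug alone or a fixed anchor-drug dose plus five library-drug doses (not always all listed) in √10 steps. Nuclei were counted on 4× images after 5 days of treatment, and values are medians of duplicate plates.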

BI-D1870 + Tozasertib = compound: CC(C)CCN1c2nc(Nc3cc(F)c(O)c(F)c3)ncc2N(C)C(=O)C1C [BI-D1870] + Cc1cc(Nc2cc(N3CCN(C)CC3)nc(Sc3ccc(NC(=O)C4CC4)cc3)n2)n[nH]1 [Tozasertib] (partner 0.1 µM)
Procedure, shortened: as §1

Zebularine + Foretinib = compound: O=c1ncccn1[C@@H]1O[C@H](CO)[C@@H](O)[C@H]1O [Zebularine] + COc1cc2c(Oc3ccc(NC(=O)C4(C(=O)Nc5ccc(F)cc5)CC4)cc3F)ccnc2cc1OCCCN1CCOCC1 [Foretinib] (partner 0.25 µM)
Procedure, shortened: as §1

Zebularine + Linsitinib = compound: O=c1ncccn1[C@@H]1O[C@H](CO)[C@@H](O)[C@H]1O [Zebularine] + C[C@]1(O)C[C@@H](c2nc(-c3ccc4ccc(-c5ccccc5)nc4c3)c3c(N)nccn32)C1 [Linsitinib] (partner 1 µM)
Procedure, shortened: as §1

| Cell Line | relative viability (Zebularine + Bortezomib; first compound 1 µM) | relative viability (Zebularine + Bortezomib; first compound 3.162 µM) | relative viability (Zebularine + Bortezomib; first compound 10 µM) | relative viability (Zebularine + Bortezomib; first compound 31.62 µM) | relative viability (Zebularine + Bortezomib; first compound 100 µM) | relative viability (BI-D1870 + Tozasertib; first compound 0.04 µM) | relative viability (BI-D1870 + Tozasertib; first compound 0.1265 µM) | relative viability (BI-D1870 + Tozasertib; first compound 0.4 µM) | relative viability (BI-D1870 + Tozasertib; first compound 1.265 µM) | relative viability (BI-D1870 + Tozasertib; first compound 4 µM) | relative viability (Zebularine + Foretinib; first compound 1 µM) | relative viability (Zebularine + Foretinib; first compound 3.162 µM) | relative viability (Zebularine + Foretinib; first compound 31.62 µM) | relative viability (Zebularine + Foretinib; first compound 100 µM) | relative viability (Zebularine + Linsitinib; first compound 1 µM) | relative viability (Zebularine + Linsitinib; first compound 3.162 µM) | relative viability (Zebularine + Linsitinib; first compound 10 µM) | relative viability (Zebularine + Linsitinib; first compound 31.62 µM) | relative viability (Zebularine + Linsitinib; first compound 100 µM) | relative viability (Zebularine + Foretinib; first compound 10 µM) |
| --- | --- | --- | --- | --- | --- | --- | --- | --- | --- | --- | --- | --- | --- | --- | --- | --- | --- | --- | --- | --- |
| 201T | 1.13 | 1.1 | 1 | 1.15 | 1.11 | 0.993 | 0.905 | 0.935 | 0.955 | 0.936 | 1.16 | 1.14 | 0.973 | 0.32 | 1.13 | 1.02 | 1.05 | 1.09 | 1.04 | – |
| A549 | – | – | – | – | – | – | – | – | – | – | 0.898 | 0.996 | 0.855 | 0.0887 | 0.741 | 0.635 | 0.304 | 0.716 | 0.279 | 0.743 |
| A-427 | 1.12 | 0.899 | 0.665 | 0.381 | 0.247 | 0.202 | 0.213 | 0.21 | 0.238 | 0.221 | 1.22 | 0.965 | 0.468 | 0.232 | 1.12 | 1.08 | 0.855 | 0.513 | 0.256 | 0.579 |
| ABC-1 | 0.295 | 0.248 | 0.249 | 0.275 | 0.349 | 0.171 | 0.155 | 0.15 | 0.197 | 0.197 | 1.16 | 1.11 | 0.783 | 0.473 | 0.678 | 0.713 | 0.572 | 0.544 | 0.481 | 0.681 |
| BEN | 0.938 | 0.714 | 0.345 | 0.372 | 0.265 | 0.557 | 0.618 | 0.438 | 0.548 | 0.605 | 0.648 | 0.44 | 0.336 | 0.194 | 0.911 | 0.777 | 0.432 | 0.384 | 0.308 | 0.341 |
| CAL-12T | 1.22 | 1.01 | – | 0.68 | 0.483 | 0.324 | 0.317 | 0.185 | 0.261 | 0.194 | 1.2 | 1.09 | 1.15 | 0.671 | 0.819 | 0.794 | 0.716 | 0.896 | 0.464 | 0.931 |
| COR-L23 | 0.928 | 1.13 | 0.363 | 0.318 | 0.251 | 0.199 | 0.166 | 0.145 | 0.181 | 0.13 | 1.11 | 0.98 | 0.513 | 0.157 | 0.977 | 1.05 | 0.448 | 0.493 | 0.211 | 0.621 |
| COR-L 105 | 0.978 | 0.771 | 0.694 | 1.21 | 0.843 | 0.416 | 0.319 | 0.343 | 0.341 | 0.33 | 1.02 | 0.938 | 1.33 | 0.91 | 0.986 | 0.956 | 0.928 | 1.22 | 0.939 | 0.755 |
| Calu-6 | 1.04 | 0.85 | 0.914 | 0.77 | 0.306 | – | – | – | – | – | 0.959 | 0.84 | 0.798 | 0.275 | 1.03 | 0.946 | 0.734 | 0.864 | 0.209 | 0.702 |
| ChaGo-K-1 | 1.27 | 0.982 | 0.558 | 0.678 | 0.284 | 0.224 | 0.203 | 0.201 | 0.236 | 0.22 | 0.939 | 0.824 | 0.252 | 0.203 | – | – | – | – | – | 0.337 |
| EBC-1 | 0.528 | 0.547 | 0.508 | 0.572 | 0.623 | – | – | – | – | – | 0.102 | 0.105 | 0.0884 | 0.109 | 1.1 | 0.975 | 0.979 | 1.21 | 0.854 | 0.0888 |
| EKVX | 1.27 | 1.05 | – | 0.88 | 1.06 | 0.433 | 0.379 | 0.378 | 0.287 | 0.206 | 0.893 | 0.624 | 0.753 | 0.75 | 1.16 | 1.01 | – | 1.15 | 0.979 | 0.731 |
| EMC-BAC-2 | 1.1 | 1.09 | 0.732 | 1.09 | 1.11 | 0.317 | 0.248 | 0.316 | 0.288 | 0.259 | 1.09 | 1.02 | 1.04 | 1.03 | 0.899 | 0.886 | 0.637 | 0.879 | 0.839 | 0.856 |
| EPLC-272H | 1 | – | – | 1.07 | 0.836 | 0.37 | 0.242 | 0.232 | 0.247 | 0.238 | 0.958 | 0.591 | 0.631 | 0.468 | 1.62 | – | – | 1.05 | 0.746 | 0.6 |
| H3255 | 0.897 | 0.736 | 0.419 | 0.775 | 0.942 | 0.641 | 0.57 | 0.68 | 0.604 | 0.739 | 0.94 | 0.98 | 0.959 | 0.897 | 0.979 | 1.05 | – | 0.956 | 1 | 0.766 |
| HARA | 1.14 | 1.11 | – | 1.09 | 0.86 | 0.129 | 0.101 | 0.128 | 0.139 | 0.0974 | 0.979 | – | 0.912 | 0.584 | 1.01 | 0.923 | – | 0.968 | 0.623 | – |
| HCC-15 | 1.19 | 1.03 | 0.723 | 0.962 | 0.456 | 0.523 | 0.347 | 0.33 | 0.333 | 0.185 | 1.21 | 1.08 | 0.861 | 0.434 | 0.983 | 0.883 | 0.615 | 0.773 | 0.251 | 0.833 |
| HCC-44 | 0.95 | 0.868 | 0.483 | 0.827 | 0.251 | 1.29 | 0.89 | 0.855 | 0.602 | 0.404 | – | – | – | – | 0.77 | 0.655 | 0.466 | 0.577 | 0.218 | – |
